The values below come from EPA's ToxValDB 9.5.

Molecules are shown by their SMILES. ≈ marks a conversion by molar mass, not a printed value. Where “and” joins values, the source holds several entries; their conditions need not be identical. Equal values may be shown once.

Data set [1] has as its system Rattus norvegicus. As to the kind of experiment: LD10; higher = less toxic. The following applies: acute; inhalation.
Data set [2] relates to Mus musculus. The following applies: oral, gavage.
The subject of data set [3] is Rattus norvegicus.
Data set [4] has as its system Oryctolagus sp. The following applies: New Zealand; for LD50: acute, dermal; for NOAEL: reproduction developmental, duration: 13 days, inhalation.
Data set [5] relates to Rattus norvegicus. In words: LC100; higher = less toxic. To be noted: acute; inhalation; Sprague-Dawley.
Data set [6] has as its system Cavia porcellus. The following applies: uterotrophic; duration: 12 days; injection; subcutaneous; Guinea Pig; Active.
Data set [7] concerns Rattus norvegicus. The following applies: oral, gavage.
The subject of data set [8] is Sus scrofa. The following applies: repeat dose other; oral; diet; M/F; Not specified; Renal proximal tubule degeneration & interstitial nephropathy.
Data set [9] has as its system Rattus norvegicus. The following applies: dietary / carcinogenicity; duration: 2 years; oral; feed; M/F; Hepatocellular lipid vacuolation.
The subject of data set [10] is Canidae. The following applies: chronic, Beagle.
In data set [11] the test system is Rattus norvegicus. To be noted: reproduction developmental; inhalation; whole body; M/F; Crl:CD(SD); Hepatic, Urinary.
The subject of data set [12] is Canidae. To be noted: subchronic; duration: 13 weeks; oral; capsule; M/F; Dog Other; histopathologic liver.
The test system of data set [13] is Mus musculus. In words: LD100; higher = less toxic. To be noted: acute; oral; gavage; B6C3F1.
The mark [14] stands for this setting: short-term, duration: 18 days, inhalation, Sprague-Dawley.
[15] abbreviates: short-term, duration: 28 days, M, Sprague-Dawley, Clinical Observation: Salivation increase + Blood Chemistry: AST increase, T-Cho decrease, CRE increase, TP increase, ALB increase, GLUC ….
Where [16] appears, read: reproduction developmental, duration: 13 weeks, B6C3F1, generation: F0.
Setting [17] is: reproduction developmental, duration: 13 weeks, oral, gavage, Fischer 344, generation: F0.

A word on the LD50: it is the dose expected to kill half of the subjects tested. As a reminder, the LC50 is the concentration that kills 50% of the test population. The term NOAEL denotes the highest tested level that showed no adverse finding. As usually defined, the LOAEL is the lowest tested level that showed an adverse finding.

Regarding `C=C1CC(=O)O1` [Diketene], in data set [1], the LD10 is 1270 mg/m3 and ≥ 1190 mg/m3 and ≤ 1410 mg/m3. Besides, the median lethal dose (LD50) in [2] (acute) was ≥ 800 mg/kg and ≤ 1600 mg/kg; in data set [3] (acute, oral, gavage), ≥ 400 mg/kg and ≤ 800 mg/kg.
`CCC#N` [Propionitrile]: in data set [4] (occlusive), the LD50 was 90 mg/kg and 40 mg/kg and 56 mg/kg. In [3] (acute, inhalation, Sprague-Dawley), this compound had an LC50 of 3.3 mg/L (≈ 59.9 µM). Also, the no-observed-adverse-effect level (NOAEL) is 40 mg/kg-day in [3] (developmental, duration: 6 days, oral, gavage, Sprague-Dawley); over 471 mg/m3 in data set [3] (reproduction developmental, duration: 14 weeks, inhalation, Sprague-Dawley); 135 mg/m3 in [3] (reproduction developmental, duration: 46 days, inhalation, Sprague-Dawley, generation: F0); 473 mg/m3 in data set [3] (reproduction developmental, duration: 46 days, inhalation, Sprague-Dawley, generation: F1); 259 mg/m3 in data set [3] (setting [14]). This compound also came in with an LOAEL in data set [3] (setting [14]) of 741 mg/m3. In addition, the LC100 in data set [5] amounted to 90.3 mg/L.
In turn, `CC/C(=C(\c1ccccc1)c1ccc(OCCN(C)C)cc1)c1ccccc1` [Tamoxifen] gave an LEL in data set [6] of 0.1 mg/day.
For `C[C@@H]1Cc2c(Cl)cc(C(=O)N[C@@H](Cc3ccccc3)C(=O)O)c(O)c2C(=O)O1` [Ochratoxin A], in data set [7] (setting [15]), the no observed adverse effect level (NOAEL) was under 0.2 mg/kg-day. Moreover, the NOEL in [7] (setting [15]) is under 0.2 mg/kg-day; in [7] (subchronic, duration: 13 weeks, M/F, Fischer 344, Body Weight Changes: decrease + Relative Organ Weight: Right kidney decrease + Histopathology: Kidney-Karyomegaly Kidney-Atrophy Kidney/…) it was under 0.0625 mg/kg-day. The LOEL in data set [8] is 0.008 mg/kg-day.
Turning to `COC(=O)Nc1nc2ccc(S(=O)c3ccccc3)cc2[nH]1` (configuration not stated) [Oxfendazole], the NOEL in [9] worked out at 0.7 mg/kg-day.
On to `Clc1ccccc1` [Chlorobenzene], for which the lowest-observed-adverse-effect level (LOAEL) in data set [2] (setting [16]) was determined as 250 mg/kg-day; in data set [3] (setting [17]) it was 250 mg/kg-day; in data set [12] it was 54.5 mg/kg-day. Also, the no-observed-adverse-effect level (NOAEL) was found to be 125 mg/kg-day in data set [2] (setting [16]); 345 mg/m3 in data set [4] (F); 2720 mg/m3 in [4] (generation: F1); 2.06 mg/L in [10] (duration: 6 months, inhalation); 54.5 mg/kg-day in [10] (duration: 93 days, oral); 125 mg/kg-day in [3] (setting [17]). Besides, the no observed adverse effect level (NOAEL) in data set [3] (reproduction developmental, inhalation, Sprague-Dawley, generation: F0) came out at 230 mg/m3; in data set [3] (reproduction developmental, inhalation, Sprague-Dawley, generation: F1), 2070 mg/m3; in [3] (reproduction developmental, inhalation, Sprague-Dawley, generation: F2), 2070 mg/m3; in [11] it was 230 mg/m3; in data set [12] it was 27.2 mg/kg-day. The LD50 in data set [4] is over 7940 mg/kg; in data set [3] (acute, oral, Sprague-Dawley) it was 1540 mg/kg; in data set [3] (acute, oral, gavage, Fischer 344), ≥ 2000 mg/kg and ≤ 4000 mg/kg. Also, the NOEL in data set [7] (subchronic, duration: 13 weeks, M/F, Fischer 344, Deaths + Body Weight Changes: decrease + Urinalysis: Volume increase, Coproporphyrin increase + Blood Chemistry: Cho increase, TG decrease, …) is under 60 mg/kg-day. The LD100 in data set [13] amounted to 1000 mg/kg.
